Laboratory results published in US20230339970A1, “CASEIN KINASE 1 DELTA MODULATORS” (priority 2020, published 2023).

Tests used:
human CSNK1D = molecular target: T1, human CSNK1D (Homo sapiens, UniProt P48730); experiment: Whole Cell nBRET CSNK1D Binding Assay; settings: living CHO cells stably expressing human CSNK1D tagged with nanoluciferase; NanoBret tracer 130 nM; 2 hours at 37 C
T1 construct: expressed in transfected cells

[1] = molecular target: T2, human recombinant GST cleaved CSNK1D (Homo sapiens, UniProt P48730); experiment: Purified Enzyme Assay (ADP-Glo CSNK1D Kinase Assay); format: biochemical; settings: 2 nM CSNK1D; peptide substrate 150 μM; ATP 20 μM; 45 minutes at room temperature
T2 construct: GST (cleaved yes); purchased University of Dundee clone DU 19064
In short: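 Percent activity derived from ADP-Glo quantification of ADP produced. Reactions: compound dose-response with human recombinant GST-cleaved CSNK1D, ATP and substrate peptide PLSRTL-pS-VASLPGL, incubated 45 min at room temperature.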

T1 sequence (P48730 whole entry): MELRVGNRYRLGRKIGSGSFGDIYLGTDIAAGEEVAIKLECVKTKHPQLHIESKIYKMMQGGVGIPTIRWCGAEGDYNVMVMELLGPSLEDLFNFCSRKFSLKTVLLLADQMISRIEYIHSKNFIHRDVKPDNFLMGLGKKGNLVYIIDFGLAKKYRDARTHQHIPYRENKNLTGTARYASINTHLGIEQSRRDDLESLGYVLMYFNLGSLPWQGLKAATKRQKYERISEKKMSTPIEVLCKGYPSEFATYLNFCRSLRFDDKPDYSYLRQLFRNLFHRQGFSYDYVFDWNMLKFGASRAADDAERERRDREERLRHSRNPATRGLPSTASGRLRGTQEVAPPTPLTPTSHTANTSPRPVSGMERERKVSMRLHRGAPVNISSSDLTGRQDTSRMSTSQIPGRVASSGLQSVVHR
T2 sequence (P48730 whole entry): as above

Compound	IC50 (human CSNK1D) [nM]	IC50 [1] [nM]
Cc1cc(-c2c(-c3ccc(F)cc3)nn3c2CO[C@H](C)C3)c2cn[nH]c2n1 (single isomer, unassigned) [Example 84, (*R)-2-(4-Fluorophenyl)-6-methyl-3-(6-methyl-1H-pyrazolo[3,4-b]pyridin-4-yl)-6,7-dihydro-4H-pyrazolo[5,1-c][1,4]oxazine]	25	1
Cc1nc2[nH]ncc2c(-c2c(-c3ccc(F)cn3)nn3c2COC(C)(C)C3)c1F [Example 157, 3-(5-Fluoro-6-methyl-1H-pyrazolo[3,4-b]pyridin-4-yl)-2-(5-fluoro-2-pyridyl)-6,6-dimethyl-4,7-dihydropyrazolo[5,1-c][1,4]oxazine]	72	8
C[C@H]1Cn2nc(-c3ccc(F)cc3)c(-c3ccnc4[nH]ncc34)c2CO1 (single isomer, unassigned) [Example 81, (*)-2-(4-Fluorophenyl)-6-methyl-3-(1H-pyrazolo[3,4-b]pyridin-4-yl)-6,7-dihydro-4H-pyrazolo[5,1-c][1,4]oxazine]	48	2
Fc1ccc(-c2nn3c(c2-c2ccnc4[nH]ncc24)CO[C@H](C2CC2)C3)nc1 (single isomer, unassigned) [Example 108, (*R)-6-Cyclopropyl-2-(5-fluoropyridin-2-yl)-3-(1H-pyrazolo[3,4-b]pyridin-4-yl)-6,7-dihydro-4H-pyrazolo[5,1-c][1,4]oxazine]	681	41
COc1ccc2nccc(-c3c(-c4ccc(F)cn4)nn4c3OCCC4)c2n1 [Example 190, 2-(5-Fluoro-2-pyridyl)-3-(6-methoxy-1,5-naphthyridin-4-yl)-6,7-dihydro-5H-pyrazolo[5,1-b][1,3]oxazine]	215	4
Cc1cnc(N)cc1-c1c(-c2ccc(F)cn2)nn2c1COC(C)(C)C2 [Example 378, 4-(2-(5-Fluoropyridin-2-yl)-6,6-dimethyl-6,7-dihydro-4H-pyrazolo[5,1-c][1,4]oxazin-3-yl)-5-methylpyridin-2-amine]	2300	119
[2H]C([2H])([2H])C1(C([2H])([2H])[2H])Cn2nc(-c3ccc(F)cn3)c(-c3c(F)c(C)nc4[nH]nc(C)c34)c2CO1 [Example 409, 3-(5-Fluoro-3,6-dimethyl-1H-pyrazolo[3,4-b]pyridin-4-yl)-2-(5-fluoropyridin-2-yl)-6,6-bis(methyl-d3)-6,7-dihydro-4H-pyrazolo[5,1-c][1,4]oxazine]	69	12
CC(=O)Nc1cc(-c2c(-c3ccc(F)cn3)nn3c2CC[C@@H]2[C@H]3C2(F)F)ccn1 (stereo in doubt) [Example 352, N-(4-((5a*R,6a*S)-6,6-Difluoro-2-(5-fluoropyridin-2-yl)-5,5a,6,6a-tetrahydro-4H-cyclopropa[e]pyrazolo[1,5-a]pyridin-3-yl)pyridin-2-yl)acetamide]	1300	50
CC1(CF)CCc2c(-c3ccn4nccc4c3)c(-c3ccc(F)cn3)nn2C1 (single isomer, unassigned) [Example 289, (*R)-5-[6-(Fluoromethyl)-2-(5-fluoro-2-pyridyl)-6-methyl-5,7-dihydro-4H-pyrazolo[1,5-a]pyridin-3-yl]pyrazolo[1,5-a]pyridine]	114	94
Fc1ccc(-c2nn3c(c2-c2ccnc4[nH]ncc24)CC2(C3)CC2(F)F)nc1 (single isomer, unassigned) [Example 255, (*R)-1′.1′-Difluoro-2-(5-fluoro-2-pyridyl)-3-(1H-pyrazolo[3,4-b]pyridin-4-yl)spiro[4,6-dihydropyrrolo[1,2-b]pyrazole-5,2′-cyclopropane]]	1950	66
[2H]C([2H])([2H])[C@@]1(C(F)(F)F)Cn2nc(-c3ccc(F)cn3)c(-c3ccnc4[nH]nc(C)c34)c2CO1 (single isomer, unassigned) [Example 426, (*S)-2-(5-Fluoropyridin-2-yl)-6-(methyl-d3)-3-(3-methyl-1H-pyrazolo[3,4-b]pyridin-4-yl)-6-(trifluoromethyl)-6,7-dihydro-4H-pyrazolo[5,1-c][1,4]oxazine]	87	17
C[C@H]1COCc2c(-c3ccnc4[nH]ncc34)c(-c3ccc(F)cc3)nn21 (single isomer, unassigned) [Example 91, (*S)-2-(4-Fluorophenyl)-7-methyl-3-(1H-pyrazolo[3,4-b]pyridin-4-yl)-6,7-dihydro-4H-pyrazolo[5,1-c][1,4]oxazine]	151	8
CC1(C(F)(F)F)Cn2nc(-c3ccc(F)cc3)c(-c3ccnc4[nH]ncc34)c2CO1 (single isomer, unassigned) [Example 416, (*R)-2-(4-Fluorophenyl)-6-methyl-3-(1H-pyrazolo[3,4-b]pyridin-4-yl)-6-(trifluoromethyl)-6,7-dihydro-4H-pyrazolo[5,1-c][1,4]oxazine]	118	17
Fc1ccc(-c2nn3c(c2-c2ccnc4[nH]ncc24)COC(C(F)(F)F)C3)nc1 (centres unmarked) [Example 102, 2-(5-Fluoropyridin-2-yl)-3-(1H-pyrazolo[3,4-b]pyridin-4-yl)-6-(trifluoromethyl)-6,7-dihydro-4H-pyrazolo[5,1-c][1,4]oxazine]	844	39
CCC(=O)Nc1cc(-c2c(-c3ccc(F)cn3)nn3c2OCC(C)C3)ccn1 (centres unmarked) [Example 442, N-(4-(2-(5-Fluoropyridin-2-yl)-6-methyl-6,7-dihydro-5H-pyrazolo[5,1-b][1,3]oxazin-3-yl)pyridin-2-yl)propionamide]	23	3
[2H]C([2H])([2H])[C@]1(C([2H])([2H])F)CCc2c(-c3c(F)cnc4[nH]ncc34)c(-c3ccc(F)cn3)nn2C1 (single isomer, unassigned) [Example 295, (*S)-5-Fluoro-4-(6-(fluoromethyl-d2)-2-(5-fluoropyridin-2-yl)-6-(methyl-d5)-4,5,6,7-tetrahydropyrazolo[1,5-a]pyridin-3-yl)-1H-pyrazolo[3,4-b]pyridine]	24	2
[2H]C([2H])([2H])[C@@]1(C#N)CCc2c(-c3ccnc4[nH]ncc34)c(-c3ccc(F)cn3)nn2C1 (single isomer, unassigned) [Example 324, (*R)-2-(S-Fluoropyridin-2-yl)-6-(methyl-d3)-3-(1H-pyrazolo[3,4-b]pyridin-4-yl)-4,5,6,7-tetrahydropyrazolo[1,5-a]pyridine-6-carbonitrile]	112	37
CC1(CF)CCc2c(-c3cc(F)ncc3F)c(-c3ccc(F)cn3)nn2C1 (racemic) [Example 288, 3-(2,5-Difluoro-4-pyridyl)-6-(fluoromethyl)-2-(5-fluoro-2-pyridyl)-6-methyl-5,7-dihydro-4H-pyrazolo[1,5-a]pyridine]	4100	238
COC[C@]1(F)CCc2c(-c3cc(C)nc4[nH]ncc34)c(-c3ccc(F)cn3)nn2C1 (single isomer, unassigned) [Example 304, (*S)-4-[6-Fluoro-2-(5-fluoro-2-pyridyl)-6-(methoxymethyl)-5,7-dihydro-4H-pyrazolo[1,5-a]pyridin-3-yl]-6-methyl-1H-pyrazolo[3,4-b]pyridine]	34	4
Cc1nc2[nH]ncc2c(-c2c(-c3ccc(F)cn3)nn3c2CCC3)c1F [Example 9, 5-Fluoro-4-(2-(5-fluoropyridin-2-yl)-5,6-dihydro-4H-pyrrolo[1,2-b]pyrazol-3-yl)-6-methyl-1H-pyrazolo[3,4-b]pyridine]	60	12
C[C@H]1OCc2c(-c3ccnc4[nH]ncc34)c(-c3ccc(F)cn3)nn2[C@H]1C (single isomer, unassigned) [Example 116, (6*R,7*S)-2-(5-Fluoropyridin-2-yl)-6,7-dimethyl-3-(1H-pyrazolo[3,4-b]pyridin-4-yl)-6,7-dihydro-4H-pyrazolo[5,1-c][1,4]oxazine]	926	38
COCC1(F)CCc2c(-c3c(F)c(C)nc4[nH]ncc34)c(-c3ccc(F)cn3)nn2C1 (single isomer, unassigned) [Example 308, (*S)-5-Fluoro-4-[6-fluoro-2-(5-fluoro-2-pyridyl)-6-(methoxymethyl)-5,7-dihydro-4H-pyrazolo[1,5-a]pyridin-3-yl]-6-methyl-1H-pyrazolo[3,4-b]pyridine]	34	6
C[C@@H]1Cn2nc(-c3ccc(F)cc3)c(-c3ccnc4[nH]ncc34)c2CO1 (single isomer, unassigned) [Example 82, (*R)-2-(4-Fluorophenyl)-6-methyl-3-(1H-pyrazolo[3,4-b]pyridin-4-yl)-6,7-dihydro-4H-pyrazolo[5,1-c][1,4]oxazine]	26	2
COCC1(F)CCc2c(-c3c(F)cnc4[nH]ncc34)c(-c3ccc(F)cn3)nn2C1 (single isomer, unassigned) [Example 303, (*R)-5-Fluoro-4-[6-fluoro-2-(5-fluoro-2-pyridyl)-6-(methoxymethyl)-5,7-dihydro-4H-pyrazolo[1,5-a]pyridin-3-yl]-1H-pyrazolo[3,4-b]pyridine]	180	9
Cc1cc(-c2c(-c3ccc(F)cn3)nn3c2C2CC2C3)c2cn[nH]c2n1 (racemic) [Example 24, 2-(5-Fluoropyridin-2-yl)-3-(6-methyl-1H-pyrazolo[3,4-b]pyridin-4-yl)-3b,4,4a,5-tetrahydrocyclopropa[3,4]pyrrolo[1,2-b]pyrazole]	55	4
